From patent publication US12459951B2, “Compounds that interact with RAS superfamily proteins for treatment of cancers, inflammatory diseases, rasopathies, and fibrotic disease” (SHY Therapeutics, LLC, priority 2022, dated 2025) come the findings set out here.

Experiment [1] concerns Akt phosphorylation. Briefly: Akt Phosphorylation Assay (western blot), Panc-1. Type of experiment: cell-based, human. Particulars: at 10 μM, * = activation. Put shortly:
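Panc-1 (KRas G12D) cells were treated with compound at 10 μM final (0.3% DMSO) for 6 h at 37 °C, or with serial dilutions for IC50. Cells were either serum-starved overnight in 0.5% FBS and then stimulated with 1.5 ng/ml EGF for 15 min, or kept in 10% FBS without stimulation. Akt Ser473 phosphorylation in lysates was read by western blot.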
On the technique in general: A western blot detects proteins with antibodies after separation by electrophoresis.

Experiment [2] deals with KRas G12D mutant. Kind of experiment: Ras GTP Binding Domain Inhibition Assay (Ras Superfamily Assay). Particulars: 20 μM compound; for KRas G12D mutant + SOS: % inh.: with SOS; for KRas G12D mutant: % inh.: without SOS. Put shortly:
(§1)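 His-tagged GTPases immobilised on nickel-coated plates, pre-incubated with compound (20 μM single point, or serial dilution for IC50) 3 h at room temperature, with or without 10-30 μg/mL Sos (residues 556-1049) in the final hour. Bound Cy3- or Cy5-GTP (100 nM, 45 min) measured by fluorescence after washing.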

In experiment [3] the test system is KRas wild type. The experiment is described as above. Particulars: 20 μM compound; for KRas wild type + SOS: % inh.: with SOS; for KRas wild type: % inh.: without SOS. Put shortly:
as §1

The target in experiment [4] is T1, Rac-1 (Homo sapiens, UniProt P63000).
T1 construct: made in house
Described as above. The note with it: read-out: Rac-1: % inh. Put shortly: as §1

Experiment [5] deals with IL6. Briefly: IL-6 Quantification Assay (ELISA), LPS-stimulated RAW 264.7. Type of experiment: cell-based. Details: inhibition: dose or concentration left out as unconfirmed. The note with it: Mus musculus, RAW264.7; read-out: IL-6: % inh. (In general: ELISA stands for enzyme-linked immunosorbent assay.)

Regarding `Cc1c(-c2ccn(C)n2)cn2nc(-c3nccn3C)nc(Nc3cc(OCC(F)(F)F)ccn3)c12` [Compound 129, 5-Methyl-2-(1-methyl-1H-imidazol-2-yl)-6-(1-methyl-1H-pyrazol-3-yl)-N-(4-(2,2,2-trifluoroethoxy)pyridin-2-yl)pyrrolo[2,1-f][1,2,4]triazin-4-amine], the “% inh of Akt phosphorylation in Panc-1” value in experiment [1] is on record as “C* (46-84% activation)”. In experiment [2], the “KRas G12D mutant + SOS: % inh.” value is “B (B = 26-49% inhibition)” and the “KRas G12D mutant: % inh.” value is listed as “B (B = 26-49% inhibition)”. Besides, in experiment [3], the “KRas wild type + SOS: % inh.” value is “B (B = 26-49% inhibition)” and the “KRas wild type: % inh.” value is “B (B = 26-49% inhibition)”. Further, the inhibition at 20 µM in experiment [4] was in the range of 26 to 49%. Further, the inhibition in experiment [5] was in the range of 50 to 74%.
Take `COCCO[C@H]1C[C@H](Nc2nc(-c3nccn3C)nn3cc(-c4ccnc(OC)c4)c(C)c23)C1` [Compound 161, N-((1r,3r)-3-(2-Methoxy-ethoxy)cyclo-butyl)-6-(2-methoxy-pyridin-4-yl)-5-methyl-2-(1-methyl-1H-imidazol-2-yl)pyrrolo[2,1-f][1,2,4]triazin-4-amine]: the “% inh of Akt phosphorylation in Panc-1” value in experiment [1] is on record as “A* (1-25% activation)”. Further, in experiment [2], the “KRas G12D mutant + SOS: % inh.” value was 0 (0 = 0% inhibition) and the “KRas G12D mutant: % inh.” value is listed as “A (A = 1-25% inhibition)”. Further, in experiment [3], the “KRas wild type + SOS: % inh.” value is recorded as 0 (0 = 0% inhibition) and the “KRas wild type: % inh.” value was “A (A = 1-25% inhibition)”. In addition, the inhibition at 20 µM in experiment [4] lay in the range of 1 to 25%. Further, in experiment [5], the inhibition fell in the range of 75 to 100%.
Consider `Cc1c(-c2ccn(C)n2)cn2nc(-c3nccn3C)nc(Nc3cc4n(n3)CCO4)c12` [Compound 124, N-(5-Methyl-2-(1-methyl-1H-imidazol-2-yl)-6-(1-methyl-1H-pyrazol-3-yl)pyrrolo[2,1-f][1,2,4]triazin-4-yl)-2,3-dihydropyrazolo[5,1-b]oxazol-6-amine], for which, in experiment [1], the “% inh of Akt phosphorylation in Panc-1” value is “C* (46-84% activation)”. In experiment [2], the “KRas G12D mutant + SOS: % inh.” value is listed as “C (C = 50-75% inhibition)” and the “KRas G12D mutant: % inh.” value is listed as “C (C = 50-75% inhibition)”. In addition, in experiment [3], the “KRas wild type + SOS: % inh.” value is on record as “C (C = 50-75% inhibition)” and the “KRas wild type: % inh.” value is “D (D = 76-100% inhibition)”. In addition, in experiment [4], the inhibition at 20 µM was 76 to 100%. The inhibition in experiment [5] lay in the range of 25 to 49%.
With `COc1ccnc(Nc2nc(-c3nccn3C)nn3cc(-c4ccn(C5CC5)n4)c(C)c23)c1` [Compound 137, 6-(1-Cyclopropyl-1H-pyrazol-3-yl)-N-(4-methoxypyridin-2-yl)-5-methyl-2-(1-methyl-1H-imidazol-2-yl)pyrrolo[2,1-f][1,2,4]triazin-4-amine], the “% inh of Akt phosphorylation in Panc-1” value in experiment [1] was “D* (85-100% activation)”. For the same molecule, in experiment [2], the “KRas G12D mutant + SOS: % inh.” value is recorded as “B (B = 26-49% inhibition)” and the “KRas G12D mutant: % inh.” value is recorded as “C (C = 50-75% inhibition)”. For the same molecule, in experiment [3], the “KRas wild type + SOS: % inh.” value is on record as “B (B = 26-49% inhibition)” and the “KRas wild type: % inh.” value is recorded as “C (C = 50-75% inhibition)”. The inhibition at 20 µM in experiment [4] was in the range of 50 to 75%. The inhibition in experiment [5] was in the range of 1 to 24%.
As to `Cc1c(-c2ccn(C3CC3)n2)cn2nc(-c3nccn3C)nc(Nc3cc(OC4CC4)ccn3)c12` [Compound 142, N-(4-Cyclopropoxypyridin-2-yl)-6-(1-cyclopropyl-1H-pyrazol-3-yl)-5-methyl-2-(1-methyl-1H-imidazol-2-yl)pyrrolo[2,1-f][1,2,4]triazin-4-amine], in experiment [1], the “% inh of Akt phosphorylation in Panc-1” value is given as “A (1-25% inhibition)”. In experiment [2], the “KRas G12D mutant + SOS: % inh.” value is on record as “D (D = 76-100% inhibition)” and the “KRas G12D mutant: % inh.” value is “D (D = 76-100% inhibition)”. In experiment [3], the “KRas wild type + SOS: % inh.” value was “D (D = 76-100% inhibition)” and the “KRas wild type: % inh.” value was “D (D = 76-100% inhibition)”. In addition, the inhibition at 20 µM in experiment [4] was in the range of 76 to 100%. In experiment [5], the inhibition lay in the range of 25 to 49%.
For the molecule `COc1cc(Nc2nc(-c3nccn3C)nn3cc(-c4ccn(C5CC5)n4)c(C)c23)ncn1` [Compound 135, 6-(1-Cyclopropyl-1H-pyrazol-3-yl)-N-(6-methoxypyrimidin-4-yl)-5-methyl-2-(1-methyl-1H-imidazol-2-yl)pyrrolo[2,1-f][1,2,4]triazin-4-amine], in experiment [1], the “% inh of Akt phosphorylation in Panc-1” value was “D* (85-100% activation)”. In addition, in experiment [2], the “KRas G12D mutant + SOS: % inh.” value was “D (D = 76-100% inhibition)” and the “KRas G12D mutant: % inh.” value is on record as “D (D = 76-100% inhibition)”. In addition, in experiment [3], the “KRas wild type + SOS: % inh.” value is recorded as “D (D = 76-100% inhibition)” and the “KRas wild type: % inh.” value is “D (D = 76-100% inhibition)”. Also, in experiment [4], the inhibition at 20 µM is 76 to 100%. The inhibition in experiment [5] is 25 to 49%.
For `Cc1c(-c2ccn(C(C)C)n2)cn2nc(-c3nccn3C)nc(Nc3cc(OCCN(C)C)ncn3)c12` [Compound 123, N-(6-(2-(Dimethylamino)ethoxy)pyrimidin-4-yl)-6-(1-isopropyl-1H-pyrazol-3-yl)-5-methyl-2-(1-methyl-1H-imidazol-2-yl)pyrrolo[2,1-f][1,2,4]triazin-4-amine], the “% inh of Akt phosphorylation in Panc-1” value in experiment [1] is “B* (26-49% activation)”. Besides, in experiment [2], the “KRas G12D mutant + SOS: % inh.” value is reported as “D (D = 76-100% inhibition)” and the “KRas G12D mutant: % inh.” value was “D (D = 76-100% inhibition)”. For the same molecule, in experiment [3], the “KRas wild type + SOS: % inh.” value was “D (D = 76-100% inhibition)” and the “KRas wild type: % inh.” value is given as “D (D = 76-100% inhibition)”. Moreover, the inhibition at 20 µM in experiment [4] was 76 to 100%. Besides, in experiment [5], the inhibition lay in the range of 75 to 100%.
With `COc1ccnc(Nc2nc(-c3nccn3C)nn3cc(-c4ccn(C)n4)c(C)c23)c1` [Compound 102, N-(4-Methoxypyridin-2-yl)-5-methyl-2-(1-methyl-1H-imidazol-2-yl)-6-(1-methyl-1H-pyrazol-3-yl)pyrrolo[2,1-f][1,2,4]triazin-4-amine], in experiment [1], the “% inh of Akt phosphorylation in Panc-1” value is recorded as “D* (85-100% activation)”. Moreover, in experiment [2], the “KRas G12D mutant + SOS: % inh.” value was “D (D = 76-100% inhibition)” and the “KRas G12D mutant: % inh.” value is given as “D (D = 76-100% inhibition)”. For the same molecule, in experiment [3], the “KRas wild type + SOS: % inh.” value is listed as “D (D = 76-100% inhibition)” and the “KRas wild type: % inh.” value is “D (D = 76-100% inhibition)”. In addition, the inhibition at 20 µM in experiment [4] lay within 76 to 100%. For the same molecule, the inhibition in experiment [5] fell in the range of 75 to 100%.
As for `Cc1c(-c2ccn(C)n2)cn2nc(-c3nccn3C)nc(Nc3nccn3C)c12` [Compound 106, 5-Methyl-N,2-bis(1-methyl-1H-imidazol-2-yl)-6-(1-methyl-1H-pyrazol-3-yl)pyrrolo[2,1-f][1,2,4]triazin-4-amine], in experiment [1], the “% inh of Akt phosphorylation in Panc-1” value is reported as “D* (85-100% activation)”. In experiment [2], the “KRas G12D mutant + SOS: % inh.” value is on record as “A (A = 1-25% inhibition)” and the “KRas G12D mutant: % inh.” value is recorded as “B (B = 26-49% inhibition)”. Further, in experiment [3], the “KRas wild type + SOS: % inh.” value is reported as 0 (0 = 0% inhibition) and the “KRas wild type: % inh.” value is on record as “A (A = 1-25% inhibition)”. In addition, the inhibition at 20 µM in experiment [4] is 26 to 49%. Besides, the inhibition in experiment [5] was 50 to 74%.
Regarding `Cc1c(-c2ccn(C3CC3)n2)cn2nc(-c3nccn3C)nc(Nc3cc(OCCO)ccn3)c12` [Compound 146, 2-((2-((6-(1-Cyclopropyl-1H-pyrazol-3-yl)-5-methyl-2-(1-methyl-1H-imidazol-2-yl)pyrrolo[2,1-f][1,2,4]triazin-4-yl)amino)pyridin-4-yl)oxy)ethan-1-ol], the “% inh of Akt phosphorylation in Panc-1” value in experiment [1] is “D* (85-100% activation)”. For the same molecule, in experiment [2], the “KRas G12D mutant + SOS: % inh.” value is listed as “D (D = 76-100% inhibition)” and the “KRas G12D mutant: % inh.” value was “D (D = 76-100% inhibition)”. For the same molecule, in experiment [3], the “KRas wild type + SOS: % inh.” value was “D (D = 76-100% inhibition)” and the “KRas wild type: % inh.” value is given as “D (D = 76-100% inhibition)”. In addition, in experiment [4], the inhibition at 20 µM lay in the range of 76 to 100%. In addition, the inhibition in experiment [5] was found to be 0%.
As for `Cc1c(-c2ccn(C3CC3)n2)cn2nc(-c3nccn3C)nc(Nc3cc(OC(F)(F)F)ccn3)c12` [Compound 138, 6-(1-Cyclopropyl-1H-pyrazol-3-yl)-5-methyl-2-(1-methyl-1H-imidazol-2-yl)-N-(4-(trifluoromethoxy)pyridin-2-yl)pyrrolo[2,1-f][1,2,4]triazin-4-amine], in experiment [1], the “% inh of Akt phosphorylation in Panc-1” value is on record as “D* (85-100% activation)”. Also, in experiment [2], the “KRas G12D mutant + SOS: % inh.” value is listed as “D (D = 76-100% inhibition)” and the “KRas G12D mutant: % inh.” value is “D (D = 76-100% inhibition)”. Besides, in experiment [3], the “KRas wild type + SOS: % inh.” value was “D (D = 76-100% inhibition)” and the “KRas wild type: % inh.” value was “C (C = 50-75% inhibition)”. The inhibition at 20 µM in experiment [4] lay within 50 to 75%. Moreover, in experiment [5], the inhibition is 50 to 74%.
For the molecule `CO[C@@H]1CC[C@@H](Nc2nc(-c3nccn3C)nn3cc(-c4ccn(C)n4)c(C)c23)C1` (racemic) [Compound 132, rac N-((1R,3R)-3-Methoxycyclopentyl)-5-methyl-2-(1-methyl-1H-imidazol-2-yl)-6-(1-methyl-1H-pyrazol-3-yl)pyrrolo[2,1-f][1,2,4]triazin-4-amine], in experiment [1], the “% inh of Akt phosphorylation in Panc-1” value was “A (1-25% inhibition)”. In experiment [2], the “KRas G12D mutant + SOS: % inh.” value is recorded as “A (A = 1-25% inhibition)” and the “KRas G12D mutant: % inh.” value is “B (B = 26-49% inhibition)”. For the same molecule, in experiment [3], the “KRas wild type + SOS: % inh.” value is 0 (0 = 0% inhibition) and the “KRas wild type: % inh.” value is recorded as “B (B = 26-49% inhibition)”. Further, in experiment [4], the inhibition at 20 µM was in the range of 1 to 25%. Also, the inhibition in experiment [5] worked out at 0%.
